According to US20070191333A1, “Antibacterial agents” (Warner Lambert Company LLC, priority 2003, published 2007):
Converted amounts (≈) assume the structure as drawn. Where two headings read alike, the source gives them in different places.

Experiments:
Format in all cases: cell-based
E. faecalis MGH-2 = experiment: Antibacterial microtitration MIC, E. faecalis MGH-2; conditions: strain MGH-2; for MIC: Enterococcus faecalis, MGH2, Gram Positive Bacteria, read-out: Minimum Inhibitory Concentrations E. faecalis MGH-2
Experimental: (§1) Test A—Antibacterial Assays The compounds of the present invention were tested against an assortment of Gram-negative and Gram-positive organisms using standard microtitration techniques (Cohen et. al., Antimicrob., 1985; 28:766; Heifetz, et. al., Antimicrob., 1974; 6:124).

S pyogenes C203 = experiment: Antibacterial microtitration MIC, S pyogenes C203; conditions: Gram Positive Bacteria, strain C203; for MIC: read-out: Minimum Inhibitory Concentrations S pyogenes C203
Experimental: as §1

S. pneumo SV-1 = experiment: Antibacterial microtitration MIC, S. pneumo SV-1; conditions: Gram Positive Bacteria, strain SV-1; for MIC: read-out: Minimum Inhibitory Concentrations S. pneumo SV-1
Experimental: as §1

S. aureus UC-76 = experiment: Antibacterial microtitration MIC, S. aureus UC-76; conditions: strain UC-76; for MIC: Staphylococcus aureus, UC76, Gram Positive Bacteria, read-out: Minimum Inhibitory Concentrations S. aureus UC-76
Experimental: as §1

H. influenzae HI-3542 = experiment: Antibacterial microtitration MIC, H. influenzae HI-3542; conditions: strain HI-3542; for MIC: Haemophilus influenzae, HI3542, Gram Negative Bacteria, read-out: Minimum Inhibitory Concentrations H. influenzae HI-3542
Experimental: as §1

E. coli 2026 = experiment: Antibacterial microtitration MIC, E. coli 2026; conditions: strain 2026; for MIC: read-out: Minimum Inhibitory Concentrations E. coli 2026
Experimental: as §1

M. catarrhalis BC-3531 = experiment: Antibacterial microtitration MIC, M. catarrhalis BC-3531; conditions: strain BC-3531; for MIC: Moraxella catarrhalis, BC3531, Gram Negative Bacteria, read-out: Minimum Inhibitory Concentrations M. catarrhalis BC-3531; for Minimum Inhibitory Concentrations M. catarrhalis BC-3531: Gram Negative Bacteria
Experimental: as §1

[1] = Escherichia coli, 2026, Gram Negative Bacteria

| SMILES | MIC (E. faecalis MGH-2) [µg/mL] | MIC (S pyogenes C203) [µg/mL] | MIC (S. pneumo SV-1) [µg/mL] | MIC (S. aureus UC-76) [µg/mL] | MIC (H. influenzae HI-3542) [µg/mL] | MIC (M. catarrhalis BC-3531) [µg/mL] | also measured |
| --- | --- | --- | --- | --- | --- | --- | --- |
| Cc1c(N2CC[C@H]([C@H](N)CC#N)C2)c(F)cc2c(=O)n(N)c(=O)n(C3CC3)c12 (racemic) [drawing 406] | 4 (≈ 10.4 µM) | 0.5 (≈ 1.29 µM) | 0.5 (≈ 1.29 µM) | 1 (≈ 2.59 µM) | – | – | – |
| Cc1c(N2CCC(C(N)C(C)(C)C#N)C2)c(F)cc2c(=O)n(N)c(=O)n(C3CC3)c12 (stereo not drawn) [drawing 420] | – | – | – | – | – | – | Minimum Inhibitory Concentrations E. faecalis MGH-2 (E. faecalis MGH-2; Gram Positive Bacteria): 16 µg/mL; Minimum Inhibitory Concentrations S pyogenes C203 (S pyogenes C203): 16 µg/mL; Minimum Inhibitory Concentrations S. pneumo SV-1 (S. pneumo SV-1): 8 µg/mL; Minimum Inhibitory Concentrations S. aureus UC-76 (S. aureus UC-76; Gram Positive Bacteria): 8 µg/mL |
| Cc1c(N2CC[C@@H]([C@@H](N)CC#N)C2)c(F)cc2c(=O)[nH]c(=O)n(C3CC3)c12 (single isomer, unassigned) [drawing 391] | – | – | – | – | 4 (≈ 10.8 µM) | 4 (≈ 10.8 µM) | Minimum Inhibitory Concentrations E. coli 2026 (E. coli 2026; Gram Negative Bacteria): 32 µg/mL |
| Cc1c(N2C[C@H](CNCCC#N)[C@@H](C)C2)c(F)cc2c(=O)n(N)c(=O)n(C3CC3)c12 (stereo in doubt) | – | – | – | – | 4 (≈ 9.65 µM) | 4 (≈ 9.65 µM) | MIC (E. coli 2026; Escherichia coli, Gram Negative Bacteria): 8 µg/mL (≈ 19.3 µM) |
| COc1c(N2C[C@@H]3CCC(NCCC#N)[C@@H]3C2)c(F)cc2c(=O)n(N)c(=O)n(C3CC3)c12 (stereo partly drawn) [drawing 415] | 4 (≈ 9.04 µM) | 1 (≈ 2.26 µM) | 0.5 (≈ 1.13 µM) | 1 (≈ 2.26 µM) | – | – | – |
| Cc1c(N2CC[C@@H]([C@@H](N)CC#N)C2)c(F)cc2c(=O)[nH]c(=O)n(C3CC3)c12 (single isomer, unassigned) [drawing 408] | 0.5 (≈ 1.35 µM) | 0.125 (≈ 0.337 µM) | 0.125 (≈ 0.337 µM) | 0.25 (≈ 0.673 µM) | – | – | – |
| Cc1c(N2CCC(C(N)C(C)(C)C#N)C2)c(F)cc2c(=O)n(N)c(=O)n(C3CC3)c12 (stereo not drawn) [drawing 402] | – | – | – | – | 32 (≈ 77.2 µM) | – | MIC (E. coli 2026; [1]): 64 µg/mL (≈ 154 µM); Minimum Inhibitory Concentrations M. catarrhalis BC-3531 (M. catarrhalis BC-3531): 5.25 µg/mL |
| Cc1c(N2C[C@H](CNCCC#N)[C@@H](C)C2)c(F)cc2c(=O)n(N)c(=O)n(C3CC3)c12 (single isomer, unassigned) | 0.5 (≈ 1.21 µM) | 0.125 (≈ 0.302 µM) | 0.125 (≈ 0.302 µM) | 0.25 (≈ 0.603 µM) | – | – | – |
| Cc1c(N2CCC(C(N)C(C)(C)C#N)C2)c(F)cc2c(=O)n(N)c(=O)n(C3CC3)c12 (stereo not drawn) [drawing 403] | – | – | – | – | – | – | Minimum Inhibitory Concentrations H. influenzae HI-3542 (H. influenzae HI-3542; Gram Negative Bacteria): 32 µg/mL; Minimum Inhibitory Concentrations E. coli 2026 (E. coli 2026; Gram Negative Bacteria): 64 µg/mL; Minimum Inhibitory Concentrations M. catarrhalis BC-3531 (M. catarrhalis BC-3531): 16 µg/mL |
| COc1c(N2CC[C@@H]([C@H](C)NCCC#N)C2)c(F)cc2c(=O)[nH]c(=O)n(C3CC3)c12 (single isomer, unassigned) [drawing 401] | – | – | – | – | 64 (≈ 154 µM) | 64 (≈ 154 µM) | MIC (E. coli 2026; [1]): 64 µg/mL (≈ 154 µM) |
| COc1c(N2CCC(C(N)CC#N)C2)c(F)cc2c(=O)n(N)c(=O)n(C3CC3)c12 (stereo not drawn) [drawing 410] | 2 (≈ 4.97 µM) | 0.5 (≈ 1.24 µM) | 0.5 (≈ 1.24 µM) | 2 (≈ 4.97 µM) | – | – | – |

The next lines start with results.

| MIC (E. faecalis MGH-2) [µg/mL] | MIC (S pyogenes C203) [µg/mL] | MIC (S. pneumo SV-1) [µg/mL] | MIC (S. aureus UC-76) [µg/mL] | MIC (H. influenzae HI-3542) [µg/mL] | MIC (M. catarrhalis BC-3531) [µg/mL] | SMILES | also measured |
| --- | --- | --- | --- | --- | --- | --- | --- |
| – | – | – | – | 0.5 (≈ 1.21 µM) | 1 (≈ 2.41 µM) | Cc1c(N2CC[C@@H]([C@H](C)NCCC#N)C2)c(F)cc2c(=O)n(N)c(=O)n(C3CC3)c12 (single isomer, unassigned) [drawing 394] | MIC (E. coli 2026; [1]): 4 µg/mL (≈ 9.65 µM) |
| – | – | – | – | 16 (≈ 37.2 µM) | 16 (≈ 37.2 µM) | COc1c(N2CC[C@@H]([C@H](C)NCCC#N)C2)c(F)cc2c(=O)n(N)c(=O)n(C3CC3)c12 (single isomer, unassigned) [drawing 400] | MIC (E. coli 2026; [1]): 64 µg/mL (≈ 149 µM) |
| 0.125 (≈ 0.302 µM) | 0.03 (≈ 0.0724 µM) | 0.015 (≈ 0.0362 µM) | 0.06 (≈ 0.145 µM) | – | – | Cc1c(N2CC[C@@H]([C@H](C)NCCC#N)C2)c(F)cc2c(=O)n(N)c(=O)n(C3CC3)c12 (single isomer, unassigned) [drawing 411] | – |
| 0.5 (≈ 1.29 µM) | 0.125 (≈ 0.323 µM) | 0.125 (≈ 0.323 µM) | 0.25 (≈ 0.647 µM) | – | – | Cc1c(N2CCC(C(N)CC#N)C2)c(F)cc2c(=O)n(N)c(=O)n(C3CC3)c12 (stereo not drawn) [drawing 405] | – |
| 1 (≈ 2.32 µM) | 0.125 (≈ 0.29 µM) | 0.125 (≈ 0.29 µM) | 0.25 (≈ 0.581 µM) | – | – | COc1c(N2CC[C@@H]([C@H](C)NCCC#N)C2)c(F)cc2c(=O)n(N)c(=O)n(C3CC3)c12 (single isomer, unassigned) [drawing 417] | – |
| – | – | – | – | 2 (≈ 5.18 µM) | 0.5 (≈ 1.29 µM) | Cc1c(N2CCC(C(N)CC#N)C2)c(F)cc2c(=O)n(N)c(=O)n(C3CC3)c12 (stereo not drawn) [drawing 388] | MIC (E. coli 2026; [1]): 8 µg/mL (≈ 20.7 µM) |
